Test results: the Bradley open melting point set (2014)
Values joined by “and” are separate entries in the source; they are usually repeats but may differ in a detail not shown here. Equal entries are not always repeated.

Compound	melting point
O=C(O)Cc1ccccc1OCc1ccccc1 [2-benzyloxyphenylacetic acid]	97 °C
CCCC1=NNC(=O)C1 [3-n-propyl-2-pyrazolin-5-one]	208 °C
Clc1ccc(Cl)cc1 [1,4-dichlorobenzene]	53 °C and 55 °C
CCCCCCCCCCC [Undecane]	-26 °C
O=S(=O)(c1ccc(Cl)cc1)c1ccc(Cl)cc1 [bis(4-chlorophenyl) sulfone]	149 °C
C[C@H](O)[C@@H](C)O [meso-2,3-butanediol]	34.5 °C and 33 °C
O=C(O)CCN1C(=O)c2ccccc2C1=O [3-phthalimidopropionic acid]	152 °C
CC(C)(C)c1ccc(-c2ccc(Br)cc2)cc1 [4-bromo-4'-tert-butylbiphenyl]	142 °C
N#Cc1ccccc1Cl [2-chlorobenzonitrile]	45 °C
COc1cc(C(=O)O)cc(OC)c1OC [3,4,5-trimethoxybenzoic acid]	170 °C
Clc1cc(Cl)c(Cl)cc1Cl [1,2,4,5-tetrachlorobenzene]	139 °C (2×) and 140 °C
O=P1(NCCCl)OCCCN1CCCl (stereo not given) [ifosfamide]	45.5 °C and 48 °C
CCOc1ccc(NC(C)=O)cc1 [4'-ethoxyacetanilide]	135 °C
CCc1ccc(B(O)O)cc1 [4-ethylbenzeneboronic acid]	152 °C
Cc1cc(N)nc(C)n1 [4-amino-2,6-dimethylpyrimidine]	185 °C
O=C(Cl)c1nc2ccccc2s1 [benzothiazole-2-carbonyl chloride]	114 °C
CC(C)(C)c1ccc(C(C)(C)C)cc1 [1,4-di-tert-butylbenzene]	77 °C
Nc1ccc(Br)cc1Br [2,4-dibromoaniline]	80 °C
Cc1c[n+]([O-])ccc1[N+](=O)[O-] [4-nitro-3-picoline n-oxide]	136 °C
COc1c(Cl)cccc1Cl [2,6-dichloroanisole]	10 °C

Compound	melting point
O=Cc1ccc(B(O)O)cc1C(F)(F)F [4-formyl-3-(trifluoromethyl)benzeneboronic acid]	201 °C
N#Cc1ccc(N)cc1 [4-aminobenzonitrile]	85 °C
C[C@]12CCC(=O)C=C1CC[C@@H]1[C@@H]2CC[C@]2(C)C(=O)CC[C@@]12O [14-hydroxyandrost-4-ene-3,17-dione]	258 °C
O=C(O)c1ccccc1 [benzoic acid]	122 °C
Brc1ccc(-c2ccc(Br)cc2)cc1 [p,p'-dibromobiphenyl]	170 °C
C=C[C@H]1CN2CC[C@H]1C[C@H]2[C@H](O)c1ccnc2ccc(OC)cc12 [quinine]	176 °C and 174 °C
CCc1ccc(C)cc1 [1-methyl-4-ethylbenzene]	-62 °C
CCOC(=O)Cc1ccccc1 [ethyl phenylacetate]	-29 °C
CC1=CC=C(C)C2=C(C)C=CC(C)=C1C2 [2,5,7,10-tetramethylbicyclo[4.4.1]undeca-1,3,5,7,9-pentaene]	72 °C
NCCc1ccc(O)cc1 [tyramine]	164 °C
O=S(=O)(Cl)Cc1ccc(F)cc1 [4-fluoro-alpha-toluenesulfonyl chloride]	60 °C
O=C(O)c1ccc(F)cc1O [4-fluorosalicylic acid]	188 °C
N#CCC(=O)c1cccs1 [3-oxo-3-(2-thienyl)propionitrile]	134 °C
CCC1OC(=O)C(C)C(OC2CC(C)(OC)C(O)C(C)O2)C(C)C(OC2OC(C)CC(N(C)C)C2O)C(C)(O)CC(C)C(=O)C(C)C(O)C1(C)O (stereo not given)	135 °C
Cc1ccc(C)c(-c2cc(C)ccc2C)c1 [2,2',5,5'-tetramethylbiphenyl]	50 °C
CCC(C)C1(CC)C(=O)NC(=O)NC1=O (stereo not given) [butabarbital]	166 °C
CCCCC(=O)c1ccccc1 [valerophenone]	-9 °C
O=C1OC2(c3ccc(O)cc3Oc3cc(O)ccc32)c2ccccc21 [Fluorescein]	315 °C
O=S(=O)(Cc1ccccc1)c1ccccc1 [benzyl phenyl sulfone]	149 °C
OB(O)c1ccc2[nH]ccc2c1 [indole-5-boronic acid]	173 °C

Compound	melting point
O=C1c2ccccc2-c2cccc3cccc1c23 [7h-benz[de]anthracen-7-one]	173 °C
O=C(O)C(O)c1cc(F)cc(F)c1 (stereo not given) [3,5-difluoromandelic acid]	136 °C
Cl/C(Cl)=C/C3C(C(=O)OC(C#N)c2cccc(Oc1ccccc1)c2)C3(C)C (stereo not given)	68.5 °C
Nc1ccc(N2CCOCC2)cc1 [4-(4-morpholinyl)aniline]	131 °C
CCCCCC(=O)OC [Methyl hexanoate]	-71 °C
CC1=CCCCC1 [1-methylcyclohexene]	-120 °C
NCCc1ccc(-c2ccccc2)cc1 [2-(4-biphenylyl)ethylamine]	52 °C
N#CC1(c2ccccc2)C=Cc2ccccc21 (stereo not given) [1-phenyl-1H-indene-1-carbonitrile]	77 °C
O=C(O)C(Cl)(Cl)Cl [Trichloroacetic acid]	57 °C
C[C@@H]1O[C@H](OC[C@@H]2O[C@H](Oc3c(-c4ccc(O)c(O)c4)oc4cc(O)cc(O)c4c3=O)[C@@H](O)[C@H](O)[C@H]2O)[C@@H](O)[C@H](O)[C@H]1O [Rutin]	125 °C
O=CCc1ccccc1 [phenylacetaldehyde]	-10 °C
[C-]#[N+]c1cnn(-c2ncnc3c2cnn3C)c1/C=C/OCC	155 °C
COc1cc2c(c(OC)c1OC)-c1ccc(OC)c(=O)cc1[C@@H](NC(C)=O)CC2 [colchicine]	146 °C
O=C(O)/C=C/c1ccc(F)cc1F [trans-2,4-difluorocinnamic acid]	217 °C
Nc1ccccc1F [2-Fluoroaniline]	-34.6 °C
Cc1ccco1 [2-methylfuran]	-89 °C
O=C(O)CCc1ccc(O)cc1 [Desaminotyrosine]	130 °C
N#Cc1ccc(O)c([N+](=O)[O-])c1 [4-Hydroxy-3-nitrobenzonitrile]	141 °C
O=C(O)/C=C/c1ccccc1 [(2E)-3-Phenylacrylic acid]	133 °C
c1cnc2c(c1)ccc1cccnc12 [1,10-phenanthroline, anhydrous]	118 °C

Continued, values first:

melting point	Compound
122 °C	O=C(Cc1ccc(-c2ccccc2)cc1)Nc1ccccn1 [difenpiramide]
108 °C	O=C(OC(=O)/C(=C/c1ccccc1)Cc1ccccc1)/C(=C/c1ccccc1)Cc1ccccc1 [(2E)-2-benzyl-3-phenylprop-2-enoic anhydride]
1 °C	CC(C)C(=O)c1ccccc1 [isobutyrophenone]
45 °C	O=C(/N=N/C(=O)OCc1ccccc1)OCc1ccccc1 [dibenzyl azodicarboxylate]
49 °C	OCc1ccccc1-c1ccccc1 [2-biphenylmethanol]
157 °C	C/C(OC/C(=N/NC(N)=O)c1ccccc1)=C(\C#N)c1ccccc1
106 °C	O=C(C[C@H](NC(=O)OCc1ccccc1)C(=O)O)OCc1ccccc1 [N-benzyloxycarbonyl-l-aspartic acid 4-benzyl ester]
83 °C	c1csc(C2CNCCN2)c1 (stereo not given) [2-(2-thienyl)piperazine]
146 °C	NC(=O)c1ccc(F)c(Cl)c1 [3-chloro-4-fluorobenzamide]
27 °C	C=CCOc1nc(OCC=C)nc(OCC=C)n1 [2,4,6-tris(allyloxy)-1,3,5-triazine]
227 °C	N#Cc1ccc(C(N)=O)cc1 [4-cyanobenzamide]
-8 °C	CC1=CC(=O)CC(C)(C)C1 [3,5,5-Trimethylcyclohex-2-en-1-one]
-67 °C	CC(C)(C)CS [2,2-dimethyl-1-propanethiol]
146 °C	O=C(CCC(=O)c1ccccc1)c1ccccc1 [1,2-dibenzoylethane]
147 °C	CCCCc1ccc(NC(=O)c2ccc(OC)cc2)cc1 [benzamide, N-(4-butylphenyl)-4-methoxy-]
178 °C	O=[N+]([O-])c1cc(Cl)[n+]([O-])c(Cl)c1 [2,6-dichloro-4-nitropyridine n-oxide]
78 °C	O=C(CC(=O)c1ccccc1)c1ccccc1 [1,3-diphenyl-1,3-propanedione]
41 °C	COc1cc(CCC(C)=O)ccc1O [4-(4-hydroxy-3-methoxyphenyl)-2-butanone]

melting point	Compound
81 °C	CCOC(=O)/C(=N\Nc1ccccc1)C(=O)C(F)(F)F
31 °C	O=[N+]([O-])c1cccc(CO)c1 [3-nitrobenzyl alcohol]
40 °C	O=C1CCCCCCC1 [cyclooctanone]
4 °C	C=CCCCCCCCCCCCCCC [1-hexadecene]
201 °C	c1ccc([Si]2(c3ccccc3)O[Si](c3ccccc3)(c3ccccc3)O[Si](c3ccccc3)(c3ccccc3)O[Si](c3ccccc3)(c3ccccc3)O2)cc1 [octaphenylcyclotetrasiloxane]
134 °C	N#CCc1csc2ccc(Cl)cc12 [5-chlorobenzo[b]thiophene-3-acetonitrile]
-71 °C	CCCCCC(=O)OC [methyl hexanoate]
53 °C	N#Cc1c(F)ccc([N+](=O)[O-])c1F [2,6-difluoro-3-nitrobenzonitrile]
203 °C	O=C(O)Cn1cncn1 [1h-1,2,4-triazole-1-acetic acid]
212 °C	CCOC(=O)c1c(O)cc(C)nc1O [ethyl 2,4-dihydroxy-6-methylnicotinate]
61 °C	Cc1ccc(CO)cc1 [4-methylbenzyl_alcohol]
114 °C	COC(=O)c1ccc(N)cc1 [Methyl 4-aminobenzoate]
-73 °C	CCC(C)(C)Cl [2-chloro-2-methylbutane]
73 °C	Clc1ccc(SSc2ccc(Cl)cc2)cc1 [bis(4-chlorophenyl) disulfide]
144 °C	Nc1cc(C(=O)O)cc(C(F)(F)F)c1 [3-amino-5-(trifluoromethyl)benzoic acid]
70 °C	COc1ccc(C=CC(=O)c2ccccc2)c(OC)c1 [2,4-Dimethoxychalcone]
332 °C	Nc1ccc(N)c2c1C(=O)c1c(N)ccc(N)c1C2=O [1,4,5,8-Tetraamino-9,10-anthraquinone]
